Assay results as given in the NIST ThermoML archive (doi:10.1016/j.jct.2017.05.001).
± gives the expanded uncertainty stated by the source.

Assay: wn = mass fraction of the nth substance listed
Conditions: Liquid; for mass density: Vibrating tube method

`OCCN(CCO)CCO` [triethanolamine] + O gave a viscosity (313.15 K, 30000 kPa, Falling or rolling sphere viscometry, w1 = 0.0992) of 0.8992 ± 0.029 mPa·s, a viscosity (313.15 K, 30000 kPa, Falling or rolling sphere viscometry, w1 = 0.2) of 1.228 ± 0.04 mPa·s and a viscosity (313.15 K, 30000 kPa, Falling or rolling sphere viscometry, w1 = 0.2991) of 1.846 ± 0.061 mPa·s. It also gave a viscosity (313.15 K, 30000 kPa, Falling or rolling sphere viscometry, w1 = 0.4) of 2.889 ± 0.095 mPa·s, a mass density (313.15 K, 30000 kPa, w1 = 0.0992) of 1019.1 ± 0.7 kg/m3 and a mass density (313.15 K, 30000 kPa, w1 = 0.2) of 1033.7 ± 0.7 kg/m3. It also gave a mass density (313.15 K, 30000 kPa, w1 = 0.2991) of 1048.8 ± 0.7 kg/m3, a mass density (313.15 K, 30000 kPa, w1 = 0.4) of 1066 ± 0.7 kg/m3 and a viscosity (313.15 K, 40000 kPa, Falling or rolling sphere viscometry, w1 = 0.0992) of 0.9027 ± 0.03 mPa·s. The viscosity (313.15 K, 40000 kPa, Falling or rolling sphere viscometry, w1 = 0.2) was 1.231 ± 0.04 mPa·s, the viscosity (313.15 K, 40000 kPa, Falling or rolling sphere viscometry, w1 = 0.2991) was 1.861 ± 0.061 mPa·s and the viscosity (313.15 K, 40000 kPa, Falling or rolling sphere viscometry, w1 = 0.4) was 2.928 ± 0.096 mPa·s. The mass density (313.15 K, 40000 kPa, w1 = 0.0992) was 1023 ± 0.7 kg/m3, the mass density (313.15 K, 40000 kPa, w1 = 0.2) was 1037.6 ± 0.7 kg/m3 and the mass density (313.15 K, 40000 kPa, w1 = 0.2991) was 1052.6 ± 0.7 kg/m3. For the same compound, the mass density (313.15 K, 40000 kPa, w1 = 0.4) was 1069.7 ± 0.7 kg/m3, the mass density (313.15 K, 50000 kPa, w1 = 0.0992) was 1026.8 ± 0.7 kg/m3 and the mass density (313.15 K, 50000 kPa, w1 = 0.2) was 1041.2 ± 0.7 kg/m3. For the same compound, the mass density (313.15 K, 50000 kPa, w1 = 0.2991) was 1056.1 ± 0.7 kg/m3, the mass density (313.15 K, 50000 kPa, w1 = 0.4) was 1073.2 ± 0.7 kg/m3 and the viscosity (313.15 K, 60000 kPa, Falling or rolling sphere viscometry, w1 = 0.0992) was 0.91 ± 0.03 mPa·s. For the same compound, the viscosity (313.15 K, 60000 kPa, Falling or rolling sphere viscometry, w1 = 0.2) was 1.251 ± 0.041 mPa·s, the viscosity (313.15 K, 60000 kPa, Falling or rolling sphere viscometry, w1 = 0.2991) was 1.893 ± 0.062 mPa·s and the viscosity (313.15 K, 60000 kPa, Falling or rolling sphere viscometry, w1 = 0.4) was 3.028 ± 0.1 mPa·s. The mass density (313.15 K, 60000 kPa, w1 = 0.0992) was 1030.7 ± 0.7 kg/m3, the mass density (313.15 K, 60000 kPa, w1 = 0.2) was 1044.9 ± 0.7 kg/m3 and the mass density (313.15 K, 60000 kPa, w1 = 0.2991) was 1059.7 ± 0.7 kg/m3. For the same compound, the mass density (313.15 K, 60000 kPa, w1 = 0.4) was 1076.6 ± 0.8 kg/m3, the mass density (313.15 K, 70000 kPa, w1 = 0.0992) was 1034.4 ± 0.7 kg/m3 and the mass density (313.15 K, 70000 kPa, w1 = 0.2) was 1048.5 ± 0.7 kg/m3. The mass density (313.15 K, 70000 kPa, w1 = 0.2991) was 1063.2 ± 0.7 kg/m3, the mass density (313.15 K, 70000 kPa, w1 = 0.4) was 1079.9 ± 0.8 kg/m3 and the viscosity (313.15 K, 80000 kPa, Falling or rolling sphere viscometry, w1 = 0.0992) was 0.9177 ± 0.03 mPa·s. For the same compound, the viscosity (313.15 K, 80000 kPa, Falling or rolling sphere viscometry, w1 = 0.2) was 1.276 ± 0.042 mPa·s, the viscosity (313.15 K, 80000 kPa, Falling or rolling sphere viscometry, w1 = 0.2991) was 1.933 ± 0.064 mPa·s and the viscosity (313.15 K, 80000 kPa, Falling or rolling sphere viscometry, w1 = 0.4) was 3.115 ± 0.1 mPa·s. The mass density (313.15 K, 80000 kPa, w1 = 0.0992) was 1038 ± 0.7 kg/m3, the mass density (313.15 K, 80000 kPa, w1 = 0.2) was 1051.9 ± 0.7 kg/m3 and the mass density (313.15 K, 80000 kPa, w1 = 0.2991) was 1066.6 ± 0.8 kg/m3. The mass density (313.15 K, 80000 kPa, w1 = 0.4) was 1083.1 ± 0.8 kg/m3, the mass density (313.15 K, 90000 kPa, w1 = 0.0992) was 1041.6 ± 0.7 kg/m3 and the mass density (313.15 K, 90000 kPa, w1 = 0.2) was 1055.3 ± 0.7 kg/m3. For the same compound, the mass density (313.15 K, 90000 kPa, w1 = 0.2991) was 1069.9 ± 0.8 kg/m3, the mass density (313.15 K, 90000 kPa, w1 = 0.4) was 1086.3 ± 0.8 kg/m3 and the viscosity (313.15 K, 100000 kPa, Falling or rolling sphere viscometry, w1 = 0.0992) was 0.9261 ± 0.03 mPa·s. It also gave a viscosity (313.15 K, 100000 kPa, Falling or rolling sphere viscometry, w1 = 0.2) of 1.282 ± 0.042 mPa·s, a viscosity (313.15 K, 100000 kPa, Falling or rolling sphere viscometry, w1 = 0.2991) of 1.98 ± 0.065 mPa·s and a viscosity (313.15 K, 100000 kPa, Falling or rolling sphere viscometry, w1 = 0.4) of 3.193 ± 0.11 mPa·s. It also gave a mass density (313.15 K, 100000 kPa, w1 = 0.0992) of 1045.2 ± 0.7 kg/m3, a mass density (313.15 K, 100000 kPa, w1 = 0.2) of 1058.8 ± 0.8 kg/m3 and a mass density (313.15 K, 100000 kPa, w1 = 0.2991) of 1073.3 ± 0.8 kg/m3. It also gave a mass density (313.15 K, 100000 kPa, w1 = 0.4) of 1089.5 ± 0.8 kg/m3, a mass density (313.15 K, 110000 kPa, w1 = 0.0992) of 1048.6 ± 0.7 kg/m3 and a mass density (313.15 K, 110000 kPa, w1 = 0.2) of 1062.1 ± 0.8 kg/m3. It also gave a mass density (313.15 K, 110000 kPa, w1 = 0.2991) of 1076.4 ± 0.8 kg/m3, a mass density (313.15 K, 110000 kPa, w1 = 0.4) of 1092.7 ± 0.9 kg/m3 and a mass density (313.15 K, 120000 kPa, w1 = 0.0992) of 1052 ± 0.8 kg/m3. For the same compound, the mass density (313.15 K, 120000 kPa, w1 = 0.2) was 1065.6 ± 0.8 kg/m3, the mass density (313.15 K, 120000 kPa, w1 = 0.2991) was 1079.6 ± 0.8 kg/m3 and the mass density (313.15 K, 120000 kPa, w1 = 0.4) was 1095.7 ± 0.9 kg/m3. For the same compound, the mass density (313.15 K, 130000 kPa, w1 = 0.0992) was 1055.3 ± 0.8 kg/m3, the mass density (313.15 K, 130000 kPa, w1 = 0.2) was 1068.7 ± 0.8 kg/m3 and the mass density (313.15 K, 130000 kPa, w1 = 0.2991) was 1082.8 ± 0.9 kg/m3. It also gave a mass density (313.15 K, 130000 kPa, w1 = 0.4) of 1098.7 ± 0.9 kg/m3, a mass density (313.15 K, 140000 kPa, w1 = 0.0992) of 1058.5 ± 0.8 kg/m3 and a mass density (313.15 K, 140000 kPa, w1 = 0.2) of 1071.9 ± 0.8 kg/m3. For the same compound, the mass density (313.15 K, 140000 kPa, w1 = 0.2991) was 1085.9 ± 0.9 kg/m3, the mass density (313.15 K, 140000 kPa, w1 = 0.4) was 1101.7 ± 0.9 kg/m3 and the viscosity (333.15 K, 100 kPa, Concentric cylinders viscometry, w1 = 0.1) was 0.621 ± 0.014 mPa·s. For the same compound, the viscosity (333.15 K, 100 kPa, Concentric cylinders viscometry, w1 = 0.2) was 0.821 ± 0.018 mPa·s, the viscosity (333.15 K, 100 kPa, Concentric cylinders viscometry, w1 = 0.3) was 1.173 ± 0.025 mPa·s and the viscosity (333.15 K, 100 kPa, Concentric cylinders viscometry, w1 = 0.4) was 1.669 ± 0.035 mPa·s. The viscosity (333.15 K, 100 kPa, Falling or rolling sphere viscometry, w1 = 0.0992) was 0.6124 ± 0.02 mPa·s, the viscosity (333.15 K, 100 kPa, Falling or rolling sphere viscometry, w1 = 0.2) was 0.8083 ± 0.027 mPa·s and the viscosity (333.15 K, 100 kPa, Falling or rolling sphere viscometry, w1 = 0.2991) was 1.147 ± 0.038 mPa·s. It also gave a viscosity (333.15 K, 100 kPa, Falling or rolling sphere viscometry, w1 = 0.4) of 1.67 ± 0.055 mPa·s, a mass density (333.15 K, 100 kPa, w1 = 0.0992) of 997.2 ± 0.7 kg/m3 and a mass density (333.15 K, 100 kPa, w1 = 0.2) of 1011.6 ± 0.7 kg/m3. For the same compound, the mass density (333.15 K, 100 kPa, w1 = 0.2991) was 1026.3 ± 0.7 kg/m3, the mass density (333.15 K, 100 kPa, w1 = 0.4) was 1043.1 ± 0.7 kg/m3 and the mass density (333.15 K, 500 kPa, w1 = 0.0992) was 997.5 ± 0.7 kg/m3. The mass density (333.15 K, 500 kPa, w1 = 0.2) was 1011.8 ± 0.7 kg/m3, the mass density (333.15 K, 500 kPa, w1 = 0.2991) was 1026.5 ± 0.7 kg/m3 and the mass density (333.15 K, 500 kPa, w1 = 0.4) was 1043.3 ± 0.7 kg/m3. It also gave a mass density (333.15 K, 1000 kPa, w1 = 0.0992) of 997.7 ± 0.7 kg/m3, a mass density (333.15 K, 1000 kPa, w1 = 0.2) of 1012 ± 0.7 kg/m3 and a mass density (333.15 K, 1000 kPa, w1 = 0.2991) of 1026.7 ± 0.7 kg/m3. It also gave a mass density (333.15 K, 1000 kPa, w1 = 0.4) of 1043.5 ± 0.7 kg/m3, a mass density (333.15 K, 2000 kPa, w1 = 0.0992) of 998.1 ± 0.7 kg/m3 and a mass density (333.15 K, 2000 kPa, w1 = 0.2) of 1012.4 ± 0.7 kg/m3. The mass density (333.15 K, 2000 kPa, w1 = 0.2991) was 1027.2 ± 0.7 kg/m3, the mass density (333.15 K, 2000 kPa, w1 = 0.4) was 1043.9 ± 0.7 kg/m3 and the viscosity (333.15 K, 5000 kPa, Falling or rolling sphere viscometry, w1 = 0.0992) was 0.6114 ± 0.02 mPa·s. For the same compound, the viscosity (333.15 K, 5000 kPa, Falling or rolling sphere viscometry, w1 = 0.2) was 0.8084 ± 0.027 mPa·s.
